Reference: PubChem BioAssay (NCI)
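Step 1: Grow cells in 96-well plates. Step 2: Expose to compound for 48 hours at 5 concentrations. Step 3: Interpolate endpoints linearly; if unreached, use highest concentration. TGI marks complete inhibition of growth.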

Assays:
Experiment in all cases: NCI tumour cell line growth inhibition, 48 h
COLO 205 colon = system: COLO 205 colon
DU-145 prostate = system: DU-145 prostate
HCT-15 colon = system: HCT-15 colon
HL-60(TB) leukemia = system: HL-60(TB) leukemia
MDA-MB-231 breast = system: MDA-MB-231 breast
MOLT-4 leukemia = system: MOLT-4 leukemia
NCI-H23 lung = system: NCI-H23 lung
SF-268 CNS = system: SF-268 CNS
SNB-75 CNS = system: SNB-75 CNS
UACC-257 melanoma = system: UACC-257 melanoma

Compound	TGI (COLO 205 colon)	TGI (DU-145 prostate)	TGI (HCT-15 colon)	TGI (HL-60(TB) leukemia)	TGI (MDA-MB-231 breast)	TGI (MOLT-4 leukemia)	TGI (NCI-H23 lung)	TGI (SF-268 CNS)	TGI (SNB-75 CNS)	TGI (UACC-257 melanoma)
COc1ccc(/C=C(/c2ccc(OC)cc2)c2c(Cl)cc(Cl)c(/C(=C\c3ccc(OC)cc3)c3ccc(OC)cc3)c2N=Nc2ccccc2)cc1	> 100 µM	> 100 µM	> 100 µM	> 100 µM	> 100 µM	> 100 µM	> 100 µM	> 100 µM	> 100 µM	> 100 µM
NC(=S)NS(=O)(=O)c1ccc(Cl)cc1	> 100 µM	> 100 µM	> 100 µM	> 100 µM	> 100 µM	> 100 µM	> 100 µM	> 100 µM	> 100 µM	> 100 µM
CCCCCCCCCCCCCCCCCCNc1nc(=O)n(C2CC(OP(=O)(O)OCC3OC(n4cc(F)c(=O)[nH]c4=O)CC3O)C(CO)O2)cc1F (stereo not given)	> 100 µM	> 100 µM	> 100 µM	20.3 µM	> 100 µM	41.9 µM	> 100 µM	37.1 µM	> 100 µM	> 100 µM
CC1C(c2ccccc2)NC(c2ccccc2)CC1(N)C#N (stereo not given)	> 100 µM	> 100 µM	> 100 µM	> 100 µM	> 100 µM	> 100 µM	> 100 µM	> 100 µM	> 100 µM	> 100 µM
COc1ccc(/N=N/C(=NNC(=O)c2ccc(C)cc2)c2ccc(N(C)C)cc2)cc1	> 85.8 µM	> 72.7 µM	> 100 µM	> 67.7 µM	> 100 µM	> 72.5 µM	> 100 µM	> 100 µM	> 100 µM	> 91.4 µM
COc1cccc(N(CN2C(=O)CCC2OC)C(C)=O)c1 (stereo not given)	> 100 µM	> 100 µM	> 100 µM	49.2 µM	> 100 µM	> 100 µM	> 100 µM	> 100 µM	> 100 µM	> 100 µM
Cc1ccc(S(=O)(=O)NC(=O)NC(CC(=O)O)C(=O)O)cc1 (stereo not given)	> 100 µM	> 100 µM	> 100 µM	> 100 µM	> 100 µM	> 100 µM	> 100 µM	> 100 µM	> 100 µM	> 100 µM
